From patent US10118947B2, “Modulation of structured polypeptide specificity” (BICYCLE THERAPEUTICS LIMITED, priority 2013, dated 2018)
Numbered stars: 1 amine (or outer) side, 2 acyl side, 3 side chain; on linkers, the order of the positions; unused ones are H or OH. Bridge positions count the residues as written; N and C are the ends. Square brackets hold non-standard residues; d marks the D form. Peptide text beside a SMILES is read from it. Pro(trans-4-Ph) = O=C(O)[C@@H]1C[C@@H](c2ccccc2)CN1; Pro(4R-Bn) = O=C(O)[C@@H]1C[C@@H](Cc2ccccc2)CN1; Pro(trans-4-F) = O=C(O)[C@@H]1C[C@@H](F)CN1; Bip = N[C@@H](Cc1ccc(-c2ccccc2)cc1)C(=O)O; Tpi = O=C(O)[C@@H]1Cc2c([nH]c3ccccc23)CN1; X2 = O=C([C@@H]1Cc2ccccc2N1[*:1])[*:2]; TBMB = c1c(C[*:1])cc(C[*:3])cc1C[*:2]; Hyp = O=C(O)[C@@H]1C[C@@H](O)CN1; 3Pal = N[C@@H](Cc1cccnc1)C(=O)O; 4Pal = N[C@@H](Cc1ccncc1)C(=O)O; Cha = N[C@@H](CC1CCCCC1)C(=O)O; Pen = CC(C)(S)[C@H](N)C(=O)O; Pip = O=C(O)[C@@H]1CCCCN1; Abu = CC[C@H](N)C(=O)O; Aib = CC(C)(N)C(=O)O

Assay: Plasma stability profiling Method #1 (MALDI-TOF, 35% plasma), rat plasma
Assay type: in vitro ADME
Conditions: Table 12; method #1
Protocol: A rapid plasma stability profiling assay was developed that employed mass spectrometric detection (MALDI-TOF, Voyager DE, Applied Biosystems) of the parent mass, until the time when the parent peptide mass was no longer observable. Specifically, 200 uM of peptide was incubated in the presence of 35% rat or human plasma (Sera labs, using citrate as anticoagulant) at 37 deg C., which was supplemented with 1×PBS (derived from a 10×PBS Stock, Sigma). At various time points (i.e. t=0, 3, 24 hrs, henceafter daily up to 10 days), 2 uL of sample was added to 18 uL of 30 mM ammonium bicarbonate in a 1:1 mixture of acetonitrile:H2O. Samples were frozen at −80 deg C. until the time of analysis. For mass spectrometric analysis that determines the approximate detection window of the peptide, the acetonitrile:H2O-diluted sample of a given time point was spotted directly (0.7 uL) onto the MALDI plate. Matrix (alpha-cyanocinnamic acid, Sigma, prepared as a saturated solution in 1:1 acetonitrile:water containing 0.1% trifluoroacetic acid) was layered over the sample (1 uL). At a similar laser intensity setting on the MALDI TOF, the time could then be determined until parent peptide was no longer detectable. It should be noted that this is a qualitative assay serves to detect relative changes in plasma stability.

SMILES | Observable in rat plasma, for days
CC(=O)N[C@H]1CSCc2cc3cc(c2)CSC[C@H](NC(=O)[C@H](CCCNC(=N)N)NC(=O)[C@H](C)NC(=O)[C@@H]2CCCN2C(=O)[C@H](Cc2cccnc2)NC(=O)[C@H](CO)NC1=O)C(=O)N[C@@H](CC(C)C)C(=O)N[C@@H](Cc1c[nH]cn1)C(=O)N[C@@H](CCC(N)=O)C(=O)N[C@@H](CC(=O)O)C(=O)N[C@@H](CC(C)C)C(=O)N[C@H](C(N)=O)CSC3 [Ac-(06-34-18) 3Pal2] (Ac-CS[3Pal]PARCLHQDLC-NH2; linker 1-7-13 via TBMB) | 2 days
CC(=O)N[C@H]1CSCc2cc3cc(c2)CSC[C@H](NC(=O)[C@H](CCCNC(=N)N)NC(=O)[C@H](C)NC(=O)[C@@H]2CCCN2C(=O)[C@H](Cc2ccc(-c4ccccc4)cc2)NC(=O)[C@H](CO)NC1=O)C(=O)N[C@@H](CC(C)C)C(=O)N[C@@H](Cc1c[nH]cn1)C(=O)N[C@@H](CCC(N)=O)C(=O)N[C@@H](CC(=O)O)C(=O)N[C@@H](CC(C)C)C(=O)N[C@H](C(N)=O)CSC3 [Ac-(06-34-18) 4,4,BPal2] (Ac-CS[Bip]PARCLHQDLC-NH2; linker 1-7-13 via TBMB) | 2 days
CC(=O)N[C@H]1CSCc2cc3cc(c2)CSC[C@H](NC(=O)[C@H](CCCNC(=N)N)NC(=O)[C@H](C)NC(=O)[C@@H]2CCCN2C(=O)[C@H](Cc2ccncc2)NC(=O)[C@H](CO)NC1=O)C(=O)N[C@@H](CC(C)C)C(=O)N[C@@H](Cc1c[nH]cn1)C(=O)N[C@@H](CCC(N)=O)C(=O)N[C@@H](CC(=O)O)C(=O)N[C@@H](CC(C)C)C(=O)N[C@H](C(N)=O)CSC3 [Ac-(06-34-18) 4Pal2] (Ac-CS[4Pal]PARCLHQDLC-NH2; linker 1-7-13 via TBMB) | 2 days
CC(=O)N[C@H]1CSCc2cc3cc(c2)CSC[C@H](NC(=O)[C@H](CCCNC(=N)N)NC(=O)[C@H](C)NC(=O)[C@@H]2CCCN2C(=O)[C@H](CC2CCCCC2)NC(=O)[C@H](CO)NC1=O)C(=O)N[C@@H](CC(C)C)C(=O)N[C@@H](Cc1c[nH]cn1)C(=O)N[C@@H](CCC(N)=O)C(=O)N[C@@H](CC(=O)O)C(=O)N[C@@H](CC(C)C)C(=O)N[C@H](C(N)=O)CSC3 [Ac-(06-34-18) Cha2] (Ac-CS[Cha]PARCLHQDLC-NH2; linker 1-7-13 via TBMB) | 2 days
CC(=O)N[C@H]1CSCc2cc3cc(c2)CSC[C@H](NC(=O)[C@H](CCCNC(=N)N)NC(=O)[C@H](C)NC(=O)[C@@H]2CCCN2C(=O)[C@@H]2Cc4c([nH]c5ccccc45)CN2C(=O)[C@H](CO)NC1=O)C(=O)N[C@@H](CC(C)C)C(=O)N[C@@H](Cc1c[nH]cn1)C(=O)N[C@@H](CCC(N)=O)C(=O)N[C@@H](CC(=O)O)C(=O)N[C@@H](CC(C)C)C(=O)N[C@H](C(N)=O)CSC3 [Ac-(06-34-18) NorHar2] (Ac-CS[Tpi]PARCLHQDLC-NH2; linker 1-7-13 via TBMB) | 2 days

Same assay, conditions: Table 13; method #1

SMILES | Observable in rat plasma, for days
CC(=O)N[C@H]1CSCc2cc3cc(c2)CSC[C@H](NC(=O)[C@H](CCCNC(=N)N)NC(=O)[C@H](C)NC(=O)[C@@H]2C[C@@H](Cc4ccccc4)CN2C(=O)[C@H](Cc2c[nH]c4ccccc24)NC(=O)[C@H](CO)NC1=O)C(=O)N[C@@H](CC(C)C)C(=O)N[C@@H](Cc1c[nH]cn1)C(=O)N[C@@H](CCC(N)=O)C(=O)N[C@@H](CC(=O)O)C(=O)N[C@@H](CC(C)C)C(=O)N[C@H](C(N)=O)CSC3 [Ac-(06-34-18) 4Benzyl Pro3] (Ac-CSW[Pro(4R-Bn)]ARCLHQDLC-NH2; linker 1-7-13 via TBMB) | 2 days
CC(=O)N[C@H]1CSCc2cc3cc(c2)CSC[C@H](NC(=O)[C@H](CCCNC(=N)N)NC(=O)[C@H](C)NC(=O)[C@@H]2C[C@@H](F)CN2C(=O)[C@H](Cc2c[nH]c4ccccc24)NC(=O)[C@H](CO)NC1=O)C(=O)N[C@@H](CC(C)C)C(=O)N[C@@H](Cc1c[nH]cn1)C(=O)N[C@@H](CCC(N)=O)C(=O)N[C@@H](CC(=O)O)C(=O)N[C@@H](CC(C)C)C(=O)N[C@H](C(N)=O)CSC3 [Ac-(06-34-18) 4FluoPro3] (Ac-CSW[Pro(trans-4-F)]ARCLHQDLC-NH2; linker 1-7-13 via TBMB) | 2 days
CC(=O)N[C@H]1CSCc2cc3cc(c2)CSC[C@H](NC(=O)[C@H](CCCNC(=N)N)NC(=O)[C@H](C)NC(=O)[C@@H]2C[C@@H](c4ccccc4)CN2C(=O)[C@H](Cc2c[nH]c4ccccc24)NC(=O)[C@H](CO)NC1=O)C(=O)N[C@@H](CC(C)C)C(=O)N[C@@H](Cc1c[nH]cn1)C(=O)N[C@@H](CCC(N)=O)C(=O)N[C@@H](CC(=O)O)C(=O)N[C@@H](CC(C)C)C(=O)N[C@H](C(N)=O)CSC3 [Ac-(06-34-18) 4Phenyl Pro3] (Ac-CSW[Pro(trans-4-Ph)]ARCLHQDLC-NH2; linker 1-7-13 via TBMB) | 2 days
CC(=O)N[C@H]1CSCc2cc3cc(c2)CSC[C@H](NC(=O)[C@H](CCCNC(=N)N)NC(=O)[C@H](C)NC(=O)C(C)(C)NC(=O)[C@H](Cc2c[nH]c4ccccc24)NC(=O)[C@H](CO)NC1=O)C(=O)N[C@@H](CC(C)C)C(=O)N[C@@H](Cc1c[nH]cn1)C(=O)N[C@@H](CCC(N)=O)C(=O)N[C@@H](CC(=O)O)C(=O)N[C@@H](CC(C)C)C(=O)N[C@H](C(N)=O)CSC3 [Ac-(06-34-18) Aib3] (Ac-CSW[Aib]ARCLHQDLC-NH2; linker 1-7-13 via TBMB) | 2 days
CC(=O)N[C@H]1CSCc2cc3cc(c2)CSC[C@H](NC(=O)[C@H](CCCNC(=N)N)NC(=O)[C@H](C)NC(=O)[C@@H]2C[C@@H](O)CN2C(=O)[C@H](Cc2c[nH]c4ccccc24)NC(=O)[C@H](CO)NC1=O)C(=O)N[C@@H](CC(C)C)C(=O)N[C@@H](Cc1c[nH]cn1)C(=O)N[C@@H](CCC(N)=O)C(=O)N[C@@H](CC(=O)O)C(=O)N[C@@H](CC(C)C)C(=O)N[C@H](C(N)=O)CSC3 [Ac-(06-34-18) HyP3] (Ac-CSW[Hyp]ARCLHQDLC-NH2; linker 1-7-13 via TBMB) | 2 days
CC(=O)N[C@H]1CSCc2cc3cc(c2)CSC[C@H](NC(=O)[C@H](CCCNC(=N)N)NC(=O)[C@H](C)NC(=O)[C@@H]2Cc4ccccc4N2C(=O)[C@H](Cc2c[nH]c4ccccc24)NC(=O)[C@H](CO)NC1=O)C(=O)N[C@@H](CC(C)C)C(=O)N[C@@H](Cc1c[nH]cn1)C(=O)N[C@@H](CCC(N)=O)C(=O)N[C@@H](CC(=O)O)C(=O)N[C@@H](CC(C)C)C(=O)N[C@H](C(N)=O)CSC3 [Ac-(06-34-18) Ind3] (Ac-CSW[X2]ARCLHQDLC-NH2; linker 1-7-13 via TBMB) | 2 days
CC(=O)N[C@H]1CSCc2cc3cc(c2)CSC[C@H](NC(=O)[C@H](CCCNC(=N)N)NC(=O)[C@H](C)NC(=O)[C@@H]2Cc4c([nH]c5ccccc45)CN2C(=O)[C@H](Cc2c[nH]c4ccccc24)NC(=O)[C@H](CO)NC1=O)C(=O)N[C@@H](CC(C)C)C(=O)N[C@@H](Cc1c[nH]cn1)C(=O)N[C@@H](CCC(N)=O)C(=O)N[C@@H](CC(=O)O)C(=O)N[C@@H](CC(C)C)C(=O)N[C@H](C(N)=O)CSC3 [Ac-(06-34-18) NorHar3] (Ac-CSW[Tpi]ARCLHQDLC-NH2; linker 1-7-13 via TBMB) | 2 days
CC(=O)N[C@H]1CSCc2cc3cc(c2)CSC[C@H](NC(=O)[C@H](CCCNC(=N)N)NC(=O)[C@H](C)NC(=O)[C@@H]2CCCCN2C(=O)[C@H](Cc2c[nH]c4ccccc24)NC(=O)[C@H](CO)NC1=O)C(=O)N[C@@H](CC(C)C)C(=O)N[C@@H](Cc1c[nH]cn1)C(=O)N[C@@H](CCC(N)=O)C(=O)N[C@@H](CC(=O)O)C(=O)N[C@@H](CC(C)C)C(=O)N[C@H](C(N)=O)CSC3 [Ac-(06-34-18) Pip3] (Ac-CSW[Pip]ARCLHQDLC-NH2; linker 1-7-13 via TBMB) | 2 days

Same assay, conditions: Table 14; method #1

SMILES | Observable in rat plasma, for days
CC[C@@H]1NC(=O)[C@@H]2CCCN2C(=O)[C@H](Cc2c[nH]c3ccccc23)NC(=O)[C@H](CO)NC(=O)[C@@H](NC(C)=O)CSCc2cc3cc(c2)CSC[C@H](NC(=O)[C@H](CCCNC(=N)N)NC1=O)C(=O)N[C@@H](CC(C)C)C(=O)N[C@@H](Cc1c[nH]cn1)C(=O)N[C@@H](CCC(N)=O)C(=O)N[C@@H](CC(=O)O)C(=O)N[C@@H](CC(C)C)C(=O)N[C@H](C(N)=O)CSC3 [Ac-(06-34-18) Aba4] (Ac-CSWP[Abu]RCLHQDLC-NH2; linker 1-7-13 via TBMB) | 2 days
CC(=O)N[C@H]1CSCc2cc3cc(c2)CSC[C@H](NC(=O)[C@H](CCCNC(=N)N)NC(=O)C(C)(C)NC(=O)[C@@H]2CCCN2C(=O)[C@H](Cc2c[nH]c4ccccc24)NC(=O)[C@H](CO)NC1=O)C(=O)N[C@@H](CC(C)C)C(=O)N[C@@H](Cc1c[nH]cn1)C(=O)N[C@@H](CCC(N)=O)C(=O)N[C@@H](CC(=O)O)C(=O)N[C@@H](CC(C)C)C(=O)N[C@H](C(N)=O)CSC3 [Ac-(06-34-18) Aib4] (Ac-CSWP[Aib]RCLHQDLC-NH2; linker 1-7-13 via TBMB) | 7 days
CC(=O)N[C@H]1CSCc2cc3cc(c2)CSC(C)(C)[C@H](NC(=O)[C@H](CCCNC(=N)N)NC(=O)[C@H](C)NC(=O)[C@@H]2CCCN2C(=O)[C@H](Cc2c[nH]c4ccccc24)NC(=O)[C@H](CO)NC1=O)C(=O)N[C@@H](CC(C)C)C(=O)N[C@@H](Cc1c[nH]cn1)C(=O)N[C@@H](CCC(N)=O)C(=O)N[C@@H](CC(=O)O)C(=O)N[C@@H](CC(C)C)C(=O)N[C@H](C(N)=O)CSC3 [Ac-(06-34-18) Cys2ToPen2] (Ac-CSWPAR[Pen]LHQDLC-NH2; linker 1-7-13 via TBMB) | 5 days
